The record followed here is ChEMBL document CHEMBL1136947, “Exploration of novel thiobarbituric acid-, rhodanine- and thiohydantoin-based HIV-1 integrase inhibitors” (Bioorg Med Chem Lett, 2009).

A word on the EC50: it is the concentration giving half of the maximal effect. By CC50 is commonly meant the concentration that lowers cell viability or growth by half. A high value points to better tolerance by the cells. As usually defined, the IC50 is the point on the concentration scale where inhibition reaches its midpoint.

In series [1] the test system is Human immunodeficiency virus 1. In words: Antiviral activity against HIV1 3B infected in human MT4 cells assessed as reduction of virus-induced cytopathogenicity by MTT assay. Type of series: functional, organism-based. The following applies: Human immunodeficiency virus 1, 3B.
Series [2] is described as follows: Cytotoxicity against human MT4 cells by MTT method. It counts as cell-based. (In general: Tetrazolium dyes change colour on reduction, which living cells bring about.)
The target in series [3] is T1, Human immunodeficiency virus type 1 integrase (Human immunodeficiency virus 1, UniProt Q7ZJM1). In words: Inhibition of HIV1 integrase using labelled oligonucleotide substrate by ELISA. For orientation: An ELISA detects its analyte on a solid surface through an enzyme-linked reagent.
T1 sequence (Q7ZJM1 whole entry): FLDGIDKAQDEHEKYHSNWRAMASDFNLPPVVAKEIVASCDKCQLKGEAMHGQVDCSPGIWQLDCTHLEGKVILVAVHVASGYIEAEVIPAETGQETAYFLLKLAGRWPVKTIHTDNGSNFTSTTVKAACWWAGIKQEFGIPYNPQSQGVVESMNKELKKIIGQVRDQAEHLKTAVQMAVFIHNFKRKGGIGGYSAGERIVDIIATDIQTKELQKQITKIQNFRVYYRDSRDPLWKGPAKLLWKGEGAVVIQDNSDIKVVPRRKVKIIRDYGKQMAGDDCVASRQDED
In series [4] the target is T1, Human immunodeficiency virus type 1 integrase. In words: Inhibition of HIV1 integrase 3'-processing activity using labelled oligonucleotide substrate by ELISA.
Series [5] shares this target. Put plainly: Inhibition of HIV1 integrase strand transfer activity using labelled oligonucleotide substrate by ELISA.
A short description of series [6]: Therapeutic index, ratio of CC50 for human MT4 cells to EC50 for HIV1 3B. Type of series: cell-based. The following applies: read-out: Ratio CC50/EC50.

Bounds are passed on as bounds.

With `Cc1nnc(C(=O)NC(C)(C)c2nc(C(=O)NCc3ccc(F)cc3)c(O)c(=O)n2C)o1`, the EC50 in series [1] turned out to be 0.0064 µM. In series [2], it took 143 µM to reach half-maximal cytotoxicity (CC50).

As to `O=C1NC(=S)N/C1=C\c1ccc(-c2ccc(O)c(C(=O)O)c2)o1`, the results for the IC50 in series [3], in series [4] and in series [5] were 50.9 µM, greater than 250 µM and greater than 250 µM, respectively. Moreover, the EC50 in series [1] worked out at 95.2 µM. Further, it took 152 µM to reach half-maximal cytotoxicity in series [2] (CC50). Moreover, the selectivity ratio in series [6] stood at 2.

Regarding `Cc1cc(-c2ccc(C(=O)O)c(O)c2)oc1/C=C1\NC(=S)NC1=O`, the IC50 in series [3] and in series [4] was greater than 250 µM each time.

As to `O=C1NC(=S)S/C1=C\c1ccc(-c2ccc(Cl)c(C(=O)O)c2)o1`, the IC50 in series [3] and in series [4] was greater than 250 µM throughout. Also, in series [1], the EC50 is greater than 155 µM. The compound further displayed a CC50 in series [2] of 155 µM.

On to `COc1cc(-c2ccc(/C=C3\SC(=S)NC3=O)o2)c(Cl)cc1C(=O)O`, for which the IC50 in series [3] and in series [4] was greater than 250 µM each time. Besides, in series [1], the EC50 is greater than 143 µM. Moreover, half-maximal cytotoxicity in series [2] (CC50) was put at 143 µM.

As to `O=C1NC(=S)NC(=O)C1=Cc1ccc(-c2cccc(C(=O)O)c2O)o1`, the IC50 in series [3] and in series [4] was greater than 250 µM in each case. Further, the EC50 in series [1] is greater than 140 µM. The CC50 in series [2] is 140 µM.

In the case of `O=C1NC(=S)NC(=O)C1=Cc1ccc(-c2ccc(C(=O)O)c(O)c2)o1`, the IC50 came out at 8.94 µM in series [3], 2.74 µM in series [4] and 69.2 µM in series [5]. Moreover, in series [1], the EC50 came to 30 µM. The midpoint of cytotoxicity in series [2], the CC50, lay at 60 µM. In series [6], the selectivity ratio is 2.

Regarding `O=C1NC(=S)NC(=O)C1=Cc1ccc(-c2ccc(O)c(C(=O)O)c2)o1`, the IC50 in series [3] was found to be 33.4 µM; in series [4], 53 µM. In series [1], the EC50 is greater than 222 µM. Moreover, the midpoint of cytotoxicity in series [2], the CC50, lay at 222 µM.

Regarding `COc1cc(-c2ccc(C=C3C(=O)NC(=S)NC3=O)o2)c(Cl)cc1C(=O)O`, the figures for the IC50 in series [3] and in series [4] were 43.2 µM and 35.3 µM, respectively. Besides, the EC50 in series [1] is greater than 100 µM. In addition, in series [2], it took 100 µM to reach half-maximal cytotoxicity (CC50).

Turning to `O=C1NC(=S)NC(=O)C1=Cc1ccc(-c2cc(C(=O)O)cc(O)c2O)o1`, the results for the IC50 in series [3], in series [4] and in series [5] were 5.06 µM, 5.79 µM and greater than 250 µM, respectively. The EC50 in series [1] amounted to 54.7 µM. The same compound displayed a CC50 in series [2] of 138 µM. The selectivity ratio in series [6] is 3.

On to `O=C1NC(=S)NC(=O)C1=Cc1ccc(-c2ccc(F)cc2C(=O)O)o1`, for which the IC50 was 184 µM in series [3] and 47.1 µM in series [4]. Besides, in series [1], the EC50 is greater than 165 µM. Also, the CC50 in series [2] amounted to 165 µM.

Consider `Cc1ccc(C(=O)O)cc1-c1ccc(C=C2C(=O)NC(=S)NC2=O)o1`, for which the IC50 came to 46.4 µM in series [3] and 25.4 µM in series [4]. Further, the EC50 in series [1] is greater than 159 µM. For the same compound, in series [2], the CC50 came to 159 µM.

For the compound `O=C1NC(=S)NC(=O)C1=Cc1ccc(-c2ccc(Cl)c(C(=O)O)c2)o1`, the IC50 in series [3] was 41.7 µM; in series [4] it was 12.9 µM. Also, the EC50 in series [1] is greater than 152 µM. For the same compound, the CC50 in series [2] was 152 µM.

Regarding `Cc1cc(-c2ccc(C(=O)O)c(O)c2)oc1/C=C1\SC(=S)NC1=O`, the results for the IC50 in series [3] and in series [4] were 158 µM and 135 µM, respectively.

In the case of `COc1cc(-c2ccc(C(=O)O)c(O)c2)oc1/C=C1\SC(=S)NC1=O`, the IC50 in series [3] and in series [4] was greater than 250 µM each time. The EC50 in series [1] was found to be 112 µM. This compound also yielded a CC50 in series [2] greater than 125 µM.

For the compound `COc1cc(C(=O)O)cc(OC)c1-c1ccc(C=C2C(=O)NC(=S)NC2=O)o1`, the IC50 is 167 µM in series [3] and greater than 250 µM in series [4]. Moreover, the EC50 in series [1] was greater than 61.1 µM. The same compound showed a CC50 in series [2] of 61.1 µM.

Regarding `O=C1NC(=S)NC(=O)C1=Cc1ccc(-c2cc(C(=O)O)cc3c2OCO3)o1`, the IC50 in series [3] is 56.5 µM; in series [4], 71.6 µM. The EC50 in series [1] was greater than 125 µM. This compound also had a CC50 in series [2] greater than 125 µM.

Consider `O=C1NC(=S)S/C1=C\c1ccc(-c2ccc(C(=O)O)c(O)c2)o1`, for which the IC50 in series [3] is 182 µM; in series [4], greater than 250 µM; in series [5] it was 97.7 µM. In addition, the EC50 in series [1] turned out to be 30.1 µM. For the same compound, the CC50 in series [2] is greater than 72 µM. Further, the selectivity ratio in series [6] was determined as 2.

For the compound `O=C1NC(=S)S/C1=C\c1ccc(-c2cc(C(=O)O)cc(O)c2O)o1`, the IC50 amounted to 15.5 µM in series [3], 22.3 µM in series [4] and 164 µM in series [5]. In series [1], the EC50 turned out to be 18 µM. The CC50 in series [2] was found to be 131 µM. Moreover, the selectivity ratio in series [6] came out at 7.

Take `O=C1NC(=S)N/C1=C\c1ccc(-c2ccc(C(=O)O)c(O)c2)o1`: the figures for the IC50 in series [3] and in series [4] were 107 µM and 74 µM, respectively. In series [1], the EC50 is greater than 193 µM. This compound also gave a CC50 in series [2] of 193 µM.

For the compound `Cc1cc(-c2ccc(C(=O)O)c(O)c2)oc1C=C1C(=O)NC(=S)NC1=O`, the results for the IC50 in series [3] and in series [4] were 90.9 µM and 125 µM, respectively. Moreover, the EC50 in series [1] is greater than 125 µM. The CC50 in series [2] is greater than 125 µM.

In the case of `Cc1c(-c2ccc(C=C3C(=O)NC(=S)NC3=O)o2)cccc1[N+](=O)[O-]`, the IC50 in series [3] came out at 58.4 µM; in series [4], 40.8 µM. In addition, in series [1], the EC50 is greater than 17.9 µM. This compound returned a CC50 in series [2] of 17.9 µM.
